Laboratory results reported in patent publication US20150239889A1, “PYRAZOLOPYRIMIDINE COMPOUND” (MITSUBISHI TANABE PHARMA CORPORATION, priority 2012, published 2015).

Experiments:
[1] = biological target: T1, human HIF-PHD3 (Homo sapiens, UniProt Q9H6Z9); assay: HIF-PHD inhibition assay (fluorescence polarization), human HIF-PHD3; format: biochemical; details: 2-oxoglutaric acid 166 μmol/L
T1 construct: purchased CrystalGenomics Ltd
Summary of the method: (§1)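 Compounds tested for enzyme inhibition by fluorescence polarization. Subtracting the reading taken before enzyme addition from the post-addition reading gave activity in mP.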

[2] = biological target: T2, human HIF-PHD2 (Homo sapiens, UniProt Q9GZT9); assay: HIF-PHD inhibition assay (fluorescence polarization), human HIF-PHD2; format: biochemical; details: 2-oxoglutaric acid 3.33 μmol/L
T2 construct: purchased CrystalGenomics Ltd
Summary of the method: as §1

[3] = test system: Hep3B cells; assay: EPO production assay (ELISA of culture supernatant); format: cell-based; details: Homo sapiens, 3 μmol/L test compound, 48 hours, relative to control (0.1% DMSO), read-out: EPO production stimulation rate with 3 μmol/L test compound
Summary of the method: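 Hep3B cells (40000/well) switched to MEM with 0.5% FBS and treated with compound (0.1% DMSO) for 48 h at 37 °C. Supernatant EPO measured by ELISA; value is fold stimulation at 3 μmol/L compound over unstimulated control.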

T1 sequence (Q9H6Z9 whole entry): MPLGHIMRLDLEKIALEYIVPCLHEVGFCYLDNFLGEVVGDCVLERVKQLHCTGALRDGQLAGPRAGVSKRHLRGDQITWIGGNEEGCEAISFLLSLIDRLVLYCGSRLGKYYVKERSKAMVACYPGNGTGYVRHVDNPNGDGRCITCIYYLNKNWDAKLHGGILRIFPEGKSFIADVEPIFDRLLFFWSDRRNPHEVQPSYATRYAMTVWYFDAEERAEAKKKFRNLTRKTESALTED
T2 sequence (Q9GZT9 2-426 limits assumed): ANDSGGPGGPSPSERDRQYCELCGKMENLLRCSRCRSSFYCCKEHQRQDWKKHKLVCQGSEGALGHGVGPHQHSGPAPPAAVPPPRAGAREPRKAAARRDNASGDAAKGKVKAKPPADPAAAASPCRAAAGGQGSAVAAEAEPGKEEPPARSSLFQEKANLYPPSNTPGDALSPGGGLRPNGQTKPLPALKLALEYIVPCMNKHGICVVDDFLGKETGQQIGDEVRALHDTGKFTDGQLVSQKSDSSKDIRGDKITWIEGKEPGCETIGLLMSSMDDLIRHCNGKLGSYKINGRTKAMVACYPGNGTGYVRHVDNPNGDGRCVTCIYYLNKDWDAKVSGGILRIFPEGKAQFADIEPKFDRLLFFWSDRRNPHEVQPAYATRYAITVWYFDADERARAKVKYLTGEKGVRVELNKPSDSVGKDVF

Row | IC50 [1] [nM] | IC50 [2] [nM] | SMILES | fold induction at 3 µM [3]
1 | 1200 | 48 | Cc1nn(CC2CCCCCC2)c2c(O)nc(-n3cc(C(=O)O)cn3)nc12 [Example 473] | 2
2 | 190 | 30 | Cc1nn(C[C@H]2CC[C@H](C(F)(F)F)CC2)c2c(O)nc(-n3cc(C(=O)O)cn3)nc12 [Example 474] | 2.8
3 | 570 | 36 | Cc1nn(CCC2CCCC2)c2c(O)nc(-n3cc(C(=O)O)cn3)nc12 [Example 476] | 2.7
4 | 830 | 180 | O=C(O)c1cnn(-c2nc(O)c3c(n2)c(C(F)(F)F)nn3CC2CCCCC2)c1 [Example 477] | 2.5
5 | 370 | 45 | O=C(O)c1cnn(-c2nc(O)c3c(n2)c(F)nn3C2CCCCC2)c1 [Example 478] | 1.8
6 | > 1000 | 35 | O=C(O)c1cnn(-c2nc(O)c3[nH]ncc3n2)c1 [Example 484] | 1.6
7 | 550 | 86 | CCCC(C)(C)Cn1ncc2nc(-n3cc(C(=O)O)cn3)nc(O)c21 [Example 493] | 2.8
8 | 500 | 68 | CCCC(CCC)Cn1ncc2nc(-n3cc(C(=O)O)cn3)nc(O)c21 [Example 495] | 18
9 | 310 | 49 | CCC(CC)Cn1nc(F)c2nc(-n3cc(C(=O)O)cn3)nc(O)c21 [Example 498] | 2.7

Second part, the molecule before the results:

Row | SMILES | IC50 [1] [nM] | IC50 [2] [nM] | fold induction at 3 µM [3]
10 | O=C(O)c1cnn(-c2nc(O)c3c(cnn3CC3CCC4(CCC4)CC3)n2)c1 [Example 379] | 200 | 16 | 10
11 | CC1(C)CCC(Cn2ncc3nc(-n4cc(C(=O)O)cn4)nc(O)c32)CC1 [Example 380] | 400 | 20 | 3.9
12 | O=C(O)c1cnn(-c2nc(O)c3c(cnn3CC34CC5CC(CC(C5)C3)C4)n2)c1 [Example 381] | 500 | 46 | 6.3
13 | C[C@@H](c1ccc(C(F)(F)F)cc1)n1nc(F)c2nc(-n3cc(C(=O)O)cn3)nc(O)c21 [Example 439] | 550 | 22 | 5.3
14 | C[C@@H](c1ccc(Cl)c(Cl)c1)n1nc(F)c2nc(-n3cc(C(=O)O)cn3)nc(O)c21 [Example 440] | 160 | 17 | 2.6
15 | C[C@@H](c1ccc2ccccc2c1)n1nc(F)c2nc(-n3cc(C(=O)O)cn3)nc(O)c21 [Example 442] | 360 | 11 | 3.3
16 | C[C@@H](c1ccc(C(F)(F)F)cc1)n1nc(Cl)c2nc(-n3cc(C(=O)O)cn3)nc(O)c21 [Example 443] | 250 | 16 | 2.9
17 | Cc1nn(Cc2ccc(C(F)(F)F)cc2)c2c(O)nc(-n3cc(C(=O)O)cn3)nc12 [Example 444] | 360 | 37 | 2.2
18 | Cc1nn([C@@H](C)c2ccc(C(F)(F)F)cc2)c2c(O)nc(-n3cc(C(=O)O)cn3)nc12 [Example 446] | 480 | 18 | 6.3
19 | Cc1nn([C@@H](C)c2ccc(Cl)c(Cl)c2)c2c(O)nc(-n3cc(C(=O)O)cn3)nc12 [Example 447] | 560 | 20 | 5.4
20 | Cc1nn([C@@H](C)c2ccc3ccccc3c2)c2c(O)nc(-n3cc(C(=O)O)cn3)nc12 [Example 454] | 730 | 30 | 2.7
21 | O=C(O)c1cnn(-c2nc(O)c3c(n2)c(F)nn3C[C@H]2CC[C@H](C(F)(F)F)CC2)c1 [Example 465] | 210 | 11 | 2.5
22 | O=C(O)c1cnn(-c2nc(O)c3c(n2)c(F)nn3CC2CCC3(CC2)CC3)c1 [Example 466] | 240 | 12 | 2.6
23 | O=C(O)c1cnn(-c2nc(O)c3c(n2)c(F)nn3CC2CCC3(CCC3)CC2)c1 [Example 467] | 270 | 15 | 3.2
24 | C[C@@H](C1CCCCC1)n1nc(F)c2nc(-n3cc(C(=O)O)cn3)nc(O)c21 [Example 468] | 300 | 25 | 3.1
25 | CC1(Cn2nc(F)c3nc(-n4cc(C(=O)O)cn4)nc(O)c32)CCCCC1 [Example 470] | 260 | 48 | 1.7
26 | O=C(O)c1cnn(-c2nc(O)c3c(n2)c(F)nn3CCC2CCCC2)c1 [Example 471] | 170 | 15 | 1.4
27 | O=C(O)c1cnn(-c2nc(O)c3c(n2)c(F)nn3CCC2CCCCC2)c1 [Example 472] | 350 | 17 | 2.4
